Assay results as given in paper PMC9917249, “Zinc Inhibits the GABAAR/ATPase during Postnatal Rat Development: The Role of Cysteine Residue” (International Journal of Molecular Sciences, 2023).

Biological target: T1, homomeric GABAAR β3 (Rattus norvegicus, UniProt P63079)
T1 construct: gene Gabrb3
Test: BCECF fluorescence, GABA-mediated HCO3- efflux
Type: cell-based
Details: 25 mM HCO3-; pH 7.4

T1 sequence (P63079 26-473): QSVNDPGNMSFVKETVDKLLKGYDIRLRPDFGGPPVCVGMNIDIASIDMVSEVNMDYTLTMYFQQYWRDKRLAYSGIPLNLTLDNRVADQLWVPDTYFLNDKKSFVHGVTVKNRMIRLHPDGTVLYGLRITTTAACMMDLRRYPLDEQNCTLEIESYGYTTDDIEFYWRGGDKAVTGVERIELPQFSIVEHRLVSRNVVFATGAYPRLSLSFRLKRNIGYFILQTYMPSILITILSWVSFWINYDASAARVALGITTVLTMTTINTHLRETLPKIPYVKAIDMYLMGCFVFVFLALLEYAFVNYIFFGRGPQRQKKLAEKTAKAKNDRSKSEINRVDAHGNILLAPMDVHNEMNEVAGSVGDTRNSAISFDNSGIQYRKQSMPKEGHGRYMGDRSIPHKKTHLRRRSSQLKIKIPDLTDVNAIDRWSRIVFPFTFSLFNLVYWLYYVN

- maximum peak fluorescence change at 100 μM GABA: 14.0 ± 1.3%
SMILES: NCCCC(=O)O [GABA]
